Results on five substances are retold here after paper PMC3507590 (Diabetes Care, 2012).

The conditions of data set [1]: acidic pH; precipitates amorphously upon s.c. injection; cited from earlier work.
In data set [2] the test system is IGF-1 receptor (IGF-1R). To be noted: cited from earlier work; for affinity for IGF-1 receptor versus human insulin: as stated in the abstract.
Data set [3] concerns subjects with type 1 and type 2 diabetes. The note with it: after multiple dosing; cited from earlier work.
For data set [4] the following is noted: for detectability / plasma concentration after s.c. glargine: any dose (0.3-1.2 units/kg), any time point 3-30 h, LLOQ 33 pmol/L.
The subject of data set [5] is animals. To be noted: in vivo in animals; cited from earlier work.
For data set [6] the following is noted: in vitro, 37°C, mass spectrometry; cited from earlier work.
For data set [7], the system named is malignant cell lines expressing primarily IGF-1R. To be noted: cited from earlier work.
In data set [8] the test system is MCF-7 cells. The note with it: ref Pierre-Eugene et al., PLoS One 2012;7:e41992; cited from earlier work.
Data set [9] deals with insulin/IGF-1 hybrid receptors. The note with it: in vitro; ref Pierre-Eugene et al., PLoS One 2012;7:e41992; cited from earlier work.
For data set [10] the following is noted: in vitro; cited from earlier work.
The subject of data set [11] is insulin receptors (IR). To be noted: cited from earlier work.

Like-named read-outs stand apart in the source and are kept apart here.

“21^A-Gly-31^B-Arg-32^B-Arg-human insulin [glargine, reference compound]”: the solubility result in data set [1] is listed as “Soluble at acidic pH”. Moreover, the “affinity for IGF-1 receptor versus human insulin” value in data set [2] (in vitro) is “slightly higher affinity”. In addition, the “binding affinity for IGF-1R compared with human insulin” value in data set [2] (in vitro) is “greater binding affinity”. The duration of action in data set [3] is above 24 h. Besides, the entries for the “detectability / plasma concentration after s.c. glargine” value in data set [4] and in data set [4] (listed as Glargine) were “nearly always fall below LLOQ” and “detectable in only one-third of subjects”, respectively. Besides, the tumor growth promotion entry in data set [5] is recorded as “does not promote tumor growth”. Besides, the “time for quantitative degradation into M1 in human serum” value in data set [6] is at most 1 h. Further, the “potency on DNA synthesis (mitogenic effects) compared with human insulin” value in data set [7] (in vitro, malignant cell lines expressing primarily IGF-1R) was “greater potency”. Besides, the “proliferative/antiapoptotic effects versus human insulin” value in [8] was “greater proliferative/antiapoptotic effects”. The “potency for stimulation of insulin/IGF-1 hybrid receptors versus human insulin” value in data set [9] is “higher potency”.

Take 21^A-Gly-human insulin [M1]: in [2] (in vitro), the “affinity for IGF-1 receptor versus human insulin” value is listed as “lower affinity”; the “affinity for IGF-1R compared with glargine, and even with human insulin” value is given as “lower affinity”. Also, the “time of maximum plasma concentrations after subcutaneous injection of glargine” value in data set [4] (M1 PK profile, doses 0.3, 0.6, 1.2 units/kg) is around 12 h. Also, the “plasma concentration by 30 h versus baseline” value in data set [4] (doses >0.3 units/kg) is “still elevated over baseline”. Further, the “metabolic properties relative to human insulin” value in data set [10] is listed as “fully retaining its metabolic properties”. In addition, in [7], the “mitogenic potential in vitro compared with glargine, and even with human insulin” value was “lower mitogenic potential”. The “potency for stimulation of insulin/IGF-1 hybrid receptors versus human insulin” value in data set [9] is given as “lower potency”.

As for “31^B-Arg-32^B-Arg-human insulin [reference compound]”, the “IGF-1R affinity compared with glargine” value in data set [2] (in vitro) is “even greater IGF-1R affinity”.

In the case of “21^A-Gly-des-30^B-Thr-human insulin [M2]”, in [2] (in vitro), the “affinity for IGF-1 receptor versus human insulin” value is “lower affinity”; the “affinity for IGF-1R compared with glargine, and even with human insulin” value is listed as “lower affinity”. In data set [4] (after s.c. glargine, associated with high M1 concentration), the “time of first appearance in plasma” value is reported as “first appeared after 12 h”. Also, the “metabolic properties relative to human insulin” value in data set [10] was “fully retaining its metabolic properties”. In addition, the “mitogenic potential in vitro compared with glargine, and even with human insulin” value in [7] is listed as “lower mitogenic potential”. Moreover, in data set [9], the “potency for stimulation of insulin/IGF-1 hybrid receptors versus human insulin” value is recorded as “lower potency”.

For “10^B-Asp-human insulin [X10, reference compound]”, the “affinity for IGF-1R” value in [2] is listed as “greater affinity”. The “affinity for IR” value in data set [11] is “greater affinity”.
